Like-named read-outs stand apart in the source and are kept apart here.
Legend:
human CB1 receptors = target: T1, human CB1 receptors (Homo sapiens, UniProt P21554); experiment: In vitro cannabinoid-CB1 receptor (ant)agonism, [3H]-arachidonic acid release in CHO cells; assay type: cell-based
T1 construct: expressed in transfected cells; host or cells: CHO cells
Description: In vitro cannabinoid-CB1 receptor (ant)agonism was assessed with human CB1 receptors cloned in CHO cells. CHO cells were grown in a DMEM culture medium, supplemented with 10% heat-inactivated fetal calf serum. Medium was aspirated and replaced by DMEM, without fetal calf serum, but containing [^3H]-arachidonic acid and incubated overnight in a cell culture stove (5% CO2/95% air; 37° C.; water-saturated atmosphere). During this period [^3H]-arachidonic acid was incorporated in membrane phospholipids. On the test day, medium was aspirated and cells were washed three times using 0.5 ml DMEM, containing 0.2% BSA. CB1 agonist stimulation lead to activation of PLA2 followed by release of [^3H]-arachidonic acid into the medium. This CB1 agonist-induced release was concentration-dependently antagonized by CB1 receptor antagonists, such as rimonabant.

[1] = target: T2, human cannabinoid CB2 receptors (Homo sapiens, UniProt P34972); experiment: In vitro affinity for cannabinoid-CB2 receptors ([3H]CP-55,940 radioligand binding, CHO cell membranes)
T2 construct: expressed in transfected cells
Description: (§1) In vitro affinity for cannabinoid-CB2 receptors: was determined using membrane preparations of CHO cells in which human cannabinoid CB2 receptors were stably transfected in conjunction with [^3H]CP-55,940 as radioligand. After incubation of a freshly prepared cell membrane preparation with the [^3H]-ligand, with or without addition of compounds of the invention, separation of bound and free ligand was performed by filtration over glassfiber filters. Radioactivity on the filter was measured by liquid scintillation counting.

[2] = target: T3, human cannabinoid CB1 receptors (Homo sapiens, UniProt P21554); experiment: In vitro affinity for cannabinoid-CB1 receptors ([3H]CP-55,940 radioligand binding, CHO cell membranes)
T3 construct: expressed in transfected cells
Description: as §1, with “cannabinoid-CB1 receptors” for “cannabinoid-CB2 receptors:”, “CB1” for “CB2”

[3] = human CB1 receptors cloned in CHO cells, [3H]-arachidonic acid release
[4] = membranes of CHO cells stably transfected with human CB2, radioligand [3H]CP-55,940, mean of at least three independent experiments, read-out: receptor binding Human CB2 [^3H]-CP-55,940 pKi (converted)
[5] = membranes of CHO cells stably transfected with human CB1, radioligand [3H]CP-55,940, mean of at least three independent experiments, read-out: receptor binding Human CB1 [^3H]-CP-55,940 pKi (converted)

T2 sequence (P34972 whole entry): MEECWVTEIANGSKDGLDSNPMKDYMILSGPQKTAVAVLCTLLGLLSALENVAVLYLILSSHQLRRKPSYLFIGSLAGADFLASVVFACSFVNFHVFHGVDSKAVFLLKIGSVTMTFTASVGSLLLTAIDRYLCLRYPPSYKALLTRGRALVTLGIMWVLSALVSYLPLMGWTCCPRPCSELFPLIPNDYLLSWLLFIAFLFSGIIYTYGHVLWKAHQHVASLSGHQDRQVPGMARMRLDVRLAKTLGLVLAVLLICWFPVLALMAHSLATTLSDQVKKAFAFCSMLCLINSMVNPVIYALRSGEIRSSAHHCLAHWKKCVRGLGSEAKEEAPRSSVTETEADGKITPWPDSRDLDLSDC
T3 sequence (P21554 whole entry): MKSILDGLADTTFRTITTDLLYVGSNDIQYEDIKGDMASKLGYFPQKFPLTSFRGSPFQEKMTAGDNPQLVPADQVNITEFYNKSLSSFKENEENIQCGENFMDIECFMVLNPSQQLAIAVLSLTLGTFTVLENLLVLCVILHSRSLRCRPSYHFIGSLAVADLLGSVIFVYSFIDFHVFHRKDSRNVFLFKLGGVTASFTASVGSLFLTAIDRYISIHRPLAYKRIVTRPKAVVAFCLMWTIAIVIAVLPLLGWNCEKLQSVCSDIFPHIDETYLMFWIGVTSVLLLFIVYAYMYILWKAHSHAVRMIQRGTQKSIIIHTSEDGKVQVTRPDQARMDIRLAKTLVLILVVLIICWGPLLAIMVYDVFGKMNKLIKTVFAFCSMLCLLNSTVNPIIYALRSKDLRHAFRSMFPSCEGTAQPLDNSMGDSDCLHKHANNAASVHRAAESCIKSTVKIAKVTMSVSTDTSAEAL
T1 sequence (P21554 whole entry): as above

Compound | EC50 (human CB1 receptors) [nM] | Ki [1] [nM] | Ki [2] [nM] | functional activity h-CB1 agonistic activity [^3H]-Arachidonic acid pEC50 (human CB1 receptors; [3]) | Ki [1, 4] [nM] | Ki [2, 5] [nM] | EC50 (human CB1 receptors; human CB1 receptors cloned in CHO cells, [3H]-arachidonic acid release, read-out: functional activity h-CB1 agonistic activity [^3H]-Arachidonic acid pEC50 (converted)) [nM]
CCCCC1=NN(C(=O)N[C@@H]2C[C@H]3CC[C@H]2C3)C(C)(C)C1c1ccccc1 (relative stereo) [Compound 19, N-(rel-exo-bicyclo[2.2.1]hept-2-yl)-3-(n-butyl)-5,5-dimethyl-4-phenyl-4,5-dihydro-(1H)-pyrazole-1-carboxamide] | 100 | 7.94 | 25.1 |  |  |  | 
CCCCC1=NN(C(=O)NC(C)(C)c2ccccc2)C(C)(C)C1c1ccccc1 (stereo not drawn) [Compound 1, N-(1-methyl-1-phenyl-ethyl)-3-(n-butyl)-5,5-dimethyl-4-phenyl-4,5-dihydro-(1H)-pyrazole-1-carboxamide] |  |  |  | 8.1 | 3.98 | 7.94 | 
CCCCC1=NN(C(=O)N[C@H]2C[C@H]3CC[C@]2(C)C3(C)C)C(C)(C)C1c1ccccc1 (stereo partly drawn) [Compound 2, N-[Endo-(1R,2S,4R)-1,7,7-trimethylbicyclo[2.2.1]hept-2-yl]-3-(n-butyl)-5,5-dimethyl-4-phenyl-4,5-dihydro-(1H)-pyrazole-1-carboxamide] |  | 3.98 | 12.6 | 7.4 |  |  | 
CCCCC1=NN(C(=O)CC(C)CC(C)(C)C)C(C)(C)C1c1ccccc1 (mixture of isomers) [Compound 39, [3-(n-butyl)-5,5-dimethyl-4-phenyl-4,5-dihydro-(1H)-pyrazol-1-yl]-3,5,5-trimethylhexan-1-one] |  |  |  |  | 12.6 | 100 | 63.1

Reference: US8410135B2, “4,5 dihydro-(1H)-pyrazole derivatives as cannabinoid CB1 receptor modulators” (Solvay Pharmaceuticals B.V., priority 2007, dated 2013)
